Consider seven compounds from US10047113B2, “Feruloyl-CoA:monolignol transferase” (Wisconsin Alumni Research Foundation (WARF), priority 2010, dated 2018).

The test system of series [1] is feruloyl-CoA:monolignol transferase (FMT). The series is described as follows: Feruloyl-CoA:monolignol transferase (FMT) enzymatic assay, UPLC detection of product. Type of series: biochemical, Angelica sinensis. Particulars: purified recombinant enzyme; for product formation from acyl-CoA substrate: coniferyl alcohol as acceptor, FIGS. 2, 6, 7; for FMT enzyme activity with monolignol as substrate: feruloyl-CoA as acyl donor, FIGS. 2, 4, 5. The method, then: The feruloyl-CoA, p-coumaroyl-CoA, and caffeoyl-CoA substrates used in the FMT assay were enzymatically synthesized using the tobacco 4-coumarate-CoA-ligase (4CL) with a c-terminal HIS tag in pCRT7/CT TOPO, provided by Eran Pichersky. Following a method modified from Beuerle and Pichersky (Anal. Biochem. 302(2): 305-12 (2001)) 3.3 mg of ferulic acid, coumaric acid or caffeic acid, 2 mg coenzyme A, and 6.9 mg ATP were added to 50 mM Tris-hydrochloride pH 8 and 2.5 mM magnesium chloride in a final volume of 10 ml. The reaction was started by adding 0.25 mg 4CL, protein purified as described by the method of Beurerle and Pichershy. After a five-hour incubation at room temperature, additional 6.9 mg ATP, 2 mg coenzyme A, and 0.25 mg purified 4CL were added and the reaction was incubated overnight. The CoA esters were purified on an SPE cartridge as described in Beuerle and Pichersky (2001).
(§1) The FMT activity assay contained 100 mM MOPS pH 6.8, 1 mM dithiothreitol (DTT), 1 mM feruloyl-CoA, 1 mM coniferyl alcohol, 3.9 μg of purified FMT protein and deionized water to a volume of 50 μL. After a 30-minute incubation, 1 μL of 10 M hydrochloric acid was added to stop the reaction. Because the product synthesized in the reaction, coniferyl ferulate (CAFA), is insoluble, 50 μL of methanol was added to solubilize the CAFA. Prior to UPLC, protein and insoluble material were removed by filtering through an Amicon Ultracel 10K membrane filter (Millipore). The flow-through was analyzed using an Acquity Ultra Performance LC with an Acquity UPLC BEH C18 1.7 μm 2.1×100 mm column and the Acquity Console and Empower 2 Software, all from Waters Corporation. The solvents used in this method were solvent A, 0.1% trifluoroacetic acid, and solvent B, 100% acetonitrile. Samples were analyzed using the following gradient conditions, 13% B, for 5 minutes, 1 minute linear gradient to 42% B, held for 4 minutes, 1 minute linear gradient to 100% B, held for 1 minutes and 3 minutes at 13% B with a flow rate of 0.3 ml/minute. This method was then used to analyze a 10 μL injection of each assay reaction; standards for each of the substrates along with chemically synthesized CAFA were used to determine retention times for each compound.
Purified recombinant enzyme was assayed for FMT activity using a reaction mixture containing 2 mM coniferyl alcohol, […], 100 mM HEPES pH 7.4 and 1 mM DTT. The second most abundant BAHD acyltransferase gene when incubated with Coniferyl alcohol and feruloyl-CoA produced a compound with the retention time of authentic coniferyl ferulate (CAFA) (FIG. 2). […] The addition of methanol to 50% after stopping the enzyme with acid was required to analyze the product by UPLC. The insolubility of the product made partial purification easy as the product was separated from the substrates by centrifugation.
This partial purified product was analyzed by NMR. The identity of the product as CAFA was confirmed by ^1H-NMR (FIG. 3). The enzyme was tested with p-coumaryl alcohol (FIG. 4) and sinapyl alcohol (FIG. 5) in addition to coniferyl alcohol (FIG. 2). The enzyme is active with all three monolignols, i.e., p-coumaryl alcohol, coniferyl alcohol and sinapyl alcohol. The enzyme was tested with p-coumaroyl-CoA (FIG. 6) and caffeoyl-CoA (FIG. 7) as well as feruloyl-CoA (FIG. 2).

A short description of series [2]: Solubility of the FMT reaction product. Type of series: physicochemical. The method, then:
as §1, with “compound. […]” for “compound.”

Turning to `CC(C)(COP(=O)(O)OP(=O)(O)OC[C@H]1O[C@@H](n2cnc3c(N)ncnc32)[C@H](O)[C@@H]1OP(=O)(O)O)[C@@H](O)C(=O)NCCC(=O)NCCSC(=O)/C=C/c1ccc(O)cc1` [p-coumaroyl-CoA], the “product formation from acyl-CoA substrate” value in series [1] is reported as “very little product is produced”.
Same read-out and setting: under `COc1cc(/C=C/C(=O)SCCNC(=O)CCNC(=O)[C@H](O)C(C)(C)COP(=O)(O)OP(=O)(O)OC[C@H]2O[C@@H](n3cnc4c(N)ncnc43)[C@H](O)[C@@H]2OP(=O)(O)O)ccc1O` [feruloyl-CoA] stands “substantial product is formed”.
Take `COc1cc(/C=C/COC(=O)/C=C/c2ccc(O)c(OC)c2)ccc1O` [coniferyl ferulate]: the “solubility in assay reaction mixture” value in series [2] (FMT activity assay, 100 mM MOPS pH 6.8, methanol added to solubilize) is “insoluble”. Also, the solubility in water entry in series [2] (product of enzyme reaction, methanol to 50% needed for UPLC) is “mostly insoluble in water”.
Regarding `OC/C=C/c1ccc(O)cc1` [p-coumaryl alcohol], the “FMT enzyme activity with monolignol as substrate” value in series [1] was “active”.
On the same count and under the same terms, under `COc1cc(/C=C/CO)cc(OC)c1O` [sinapyl alcohol] stands “active”.
Take `COc1cc(/C=C/CO)ccc1O` [coniferyl alcohol]: in series [1], the “FMT enzyme activity with monolignol as substrate” value is recorded as “active”.
With `CC(C)(COP(=O)(O)OP(=O)(O)OC[C@H]1O[C@@H](n2cnc3c(N)ncnc32)[C@H](O)[C@@H]1OP(=O)(O)O)[C@@H](O)C(=O)NCCC(=O)NCCSC(=O)/C=C/c1ccc(O)c(O)c1` [caffeoyl-CoA], the “product formation from acyl-CoA substrate” value in series [1] is “very little product is produced”.
